Source: patent US11993599B2, “Therapeutic compounds” (Genentech, Inc., priority 2021, dated 2024)

Columns and labels:
BRM = BRM (Homo sapiens, UniProt P51531); assay: Immunofluorescence assay for BRM degradation in SW1573 cells; assay type: cell-based; design: treated overnight at 4° C. with either BRM primary antibody (Cell signaling Cat #11966) or BRG primary antibody; endogenous in cells; host or cells: SW1573; conditions: 20 hours incubation; for DC50: immunofluorescence mean nuclear signal, read-out: BRM IF Degradation IC50; for BRM IF Degradation Sinf (%): normalized to a known degrader control
How it was run: (§1)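 After a 20 h incubation with test compound, SW1573 cells are fixed and stained for BRM or BRG1 plus Hoechst. Per-cell mean nuclear intensity, referenced to a degrader control, is fit concentration-dependently with unconstrained maximum for Dmax.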

BRG1 = biological target: T1, BRG1 (Homo sapiens, UniProt P51532); assay: Immunofluorescence assay for BRG1 degradation in SW1573 cells; assay type: cell-based; conditions: 20 hours incubation; for DC50: immunofluorescence mean nuclear signal, read-out: BRG1 IF Degradation IC50; for Dmax: SW1573, 20 h, normalized to a known degrader control, read-out: BRG1 IF Degradation Sinf (%)
T1 construct: either BRM primary antibody (Cell signaling Cat #11966) or BRG primary antibody (Abcam, ab 110641); endogenous in cells; host or cells: SW1573
How it was run: as §1

Chain of BRM (P51531 whole entry): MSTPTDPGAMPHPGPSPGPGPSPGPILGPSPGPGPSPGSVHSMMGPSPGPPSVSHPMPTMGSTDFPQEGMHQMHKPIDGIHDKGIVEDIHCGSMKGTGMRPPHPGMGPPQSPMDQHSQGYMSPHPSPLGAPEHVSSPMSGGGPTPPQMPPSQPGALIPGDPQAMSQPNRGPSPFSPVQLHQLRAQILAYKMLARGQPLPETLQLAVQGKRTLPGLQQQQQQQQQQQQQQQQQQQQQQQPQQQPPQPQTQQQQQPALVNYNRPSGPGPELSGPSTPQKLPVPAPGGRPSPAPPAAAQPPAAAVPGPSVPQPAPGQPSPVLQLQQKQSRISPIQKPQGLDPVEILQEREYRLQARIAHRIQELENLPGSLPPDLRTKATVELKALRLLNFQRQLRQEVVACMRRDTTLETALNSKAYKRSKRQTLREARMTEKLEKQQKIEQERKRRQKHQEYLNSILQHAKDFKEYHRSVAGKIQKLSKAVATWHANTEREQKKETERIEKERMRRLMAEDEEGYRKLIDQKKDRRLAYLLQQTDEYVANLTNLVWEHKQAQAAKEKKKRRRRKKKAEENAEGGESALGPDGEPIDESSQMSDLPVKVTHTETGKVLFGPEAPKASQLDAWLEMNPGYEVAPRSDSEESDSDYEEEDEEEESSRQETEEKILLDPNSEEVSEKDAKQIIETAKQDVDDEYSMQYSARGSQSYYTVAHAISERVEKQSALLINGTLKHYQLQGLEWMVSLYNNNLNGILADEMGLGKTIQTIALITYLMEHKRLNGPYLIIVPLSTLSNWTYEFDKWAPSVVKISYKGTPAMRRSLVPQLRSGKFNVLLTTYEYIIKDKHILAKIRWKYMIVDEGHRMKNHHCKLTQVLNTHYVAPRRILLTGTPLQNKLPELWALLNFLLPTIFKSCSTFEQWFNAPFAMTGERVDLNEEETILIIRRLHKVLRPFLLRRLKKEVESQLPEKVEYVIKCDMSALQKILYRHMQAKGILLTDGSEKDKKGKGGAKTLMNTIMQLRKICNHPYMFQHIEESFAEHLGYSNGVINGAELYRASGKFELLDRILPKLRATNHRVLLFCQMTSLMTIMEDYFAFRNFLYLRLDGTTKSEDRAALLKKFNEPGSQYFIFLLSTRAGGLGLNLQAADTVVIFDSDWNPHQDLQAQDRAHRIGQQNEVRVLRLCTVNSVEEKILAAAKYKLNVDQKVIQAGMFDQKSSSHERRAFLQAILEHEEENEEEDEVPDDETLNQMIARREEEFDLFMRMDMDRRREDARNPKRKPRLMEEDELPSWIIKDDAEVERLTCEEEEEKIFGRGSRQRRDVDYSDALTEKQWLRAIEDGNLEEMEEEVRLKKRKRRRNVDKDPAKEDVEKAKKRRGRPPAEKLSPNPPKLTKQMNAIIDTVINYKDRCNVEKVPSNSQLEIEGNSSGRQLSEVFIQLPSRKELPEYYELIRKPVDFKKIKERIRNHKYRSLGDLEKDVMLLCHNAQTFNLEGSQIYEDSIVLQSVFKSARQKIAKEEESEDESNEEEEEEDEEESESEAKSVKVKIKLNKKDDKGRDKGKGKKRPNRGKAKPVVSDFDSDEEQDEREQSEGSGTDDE
T1 sequence (P51532 whole entry): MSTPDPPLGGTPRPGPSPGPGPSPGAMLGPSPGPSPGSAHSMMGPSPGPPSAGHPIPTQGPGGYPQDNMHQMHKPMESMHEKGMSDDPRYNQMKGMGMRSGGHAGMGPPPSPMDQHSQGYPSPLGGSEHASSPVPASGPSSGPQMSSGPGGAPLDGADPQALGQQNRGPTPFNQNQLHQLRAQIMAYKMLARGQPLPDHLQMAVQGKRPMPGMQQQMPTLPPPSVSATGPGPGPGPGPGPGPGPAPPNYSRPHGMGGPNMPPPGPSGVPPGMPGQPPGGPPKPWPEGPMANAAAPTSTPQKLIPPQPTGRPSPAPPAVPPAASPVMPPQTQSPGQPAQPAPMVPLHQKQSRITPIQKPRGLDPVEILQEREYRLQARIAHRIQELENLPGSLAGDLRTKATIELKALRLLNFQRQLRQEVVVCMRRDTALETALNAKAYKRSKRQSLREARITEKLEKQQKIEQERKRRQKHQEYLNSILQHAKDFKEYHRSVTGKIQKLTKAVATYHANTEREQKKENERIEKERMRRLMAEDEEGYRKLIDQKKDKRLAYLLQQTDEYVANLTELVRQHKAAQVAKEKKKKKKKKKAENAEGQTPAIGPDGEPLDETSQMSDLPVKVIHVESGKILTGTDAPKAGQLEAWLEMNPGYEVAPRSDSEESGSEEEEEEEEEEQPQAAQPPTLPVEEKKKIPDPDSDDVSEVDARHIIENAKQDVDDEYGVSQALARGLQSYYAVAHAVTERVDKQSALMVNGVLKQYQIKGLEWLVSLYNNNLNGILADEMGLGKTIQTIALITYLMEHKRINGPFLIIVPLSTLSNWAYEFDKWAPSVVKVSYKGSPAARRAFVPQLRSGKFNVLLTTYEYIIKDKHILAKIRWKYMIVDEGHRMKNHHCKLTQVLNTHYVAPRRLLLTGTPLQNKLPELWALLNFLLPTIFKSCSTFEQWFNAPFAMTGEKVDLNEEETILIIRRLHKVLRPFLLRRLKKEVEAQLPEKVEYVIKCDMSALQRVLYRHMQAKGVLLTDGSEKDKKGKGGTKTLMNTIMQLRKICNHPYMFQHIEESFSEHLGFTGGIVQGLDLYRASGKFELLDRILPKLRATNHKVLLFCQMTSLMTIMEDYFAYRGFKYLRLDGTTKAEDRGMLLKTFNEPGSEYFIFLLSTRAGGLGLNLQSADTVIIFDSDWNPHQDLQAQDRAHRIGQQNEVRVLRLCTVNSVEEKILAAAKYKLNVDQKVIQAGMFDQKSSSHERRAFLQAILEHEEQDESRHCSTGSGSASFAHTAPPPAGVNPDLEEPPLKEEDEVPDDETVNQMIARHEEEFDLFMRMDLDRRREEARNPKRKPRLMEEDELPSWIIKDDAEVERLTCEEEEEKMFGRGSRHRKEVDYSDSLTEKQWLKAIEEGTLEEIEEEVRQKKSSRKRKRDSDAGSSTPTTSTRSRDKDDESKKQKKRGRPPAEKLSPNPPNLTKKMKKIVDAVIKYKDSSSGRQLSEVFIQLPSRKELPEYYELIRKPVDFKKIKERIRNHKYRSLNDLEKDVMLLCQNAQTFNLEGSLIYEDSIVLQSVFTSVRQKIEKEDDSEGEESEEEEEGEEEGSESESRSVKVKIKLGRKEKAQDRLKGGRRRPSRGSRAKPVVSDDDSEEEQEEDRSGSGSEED

## Nc1nnc(-c2ccccc2O)cc1N1CC2CCC(C1)N2c1ccnc(C#CCN2CC3CCCC2C3)c1 (stereo not drawn) [Compound 125, 2-[6-amino-5-[8-[2-[3-(6-azabicyclo[3.2.1]octan-6-yl)prop-1-ynyl]-4-pyridyl]-3,8-diazabicyclo[3.2.1]octan-3-yl]pyridazin-3-yl]phenol]
BRM
  DC50: < 10 nM
  BRM IF Degradation Sinf (%): E (E indicates −30%-−70%)
BRG1
  DC50: < 10 nM
  Dmax: 30 to 70%

## Nc1nnc(-c2ccccc2O)cc1N1CC2CCC(C1)N2c1ccnc(C#CCN2CC3CC(C2)C3O)c1 (stereo not drawn) [Compound 126, 3-[3-[4-[3-[3-amino-6-(2-hydroxyphenyl)pyridazin-4-yl]-3,8-diazabicyclo[3.2.1]octan-8-yl]-2-pyridyl]prop-2-ynyl]-3-azabicyclo[3.1.1]heptan-6-ol]
BRM
  DC50: < 10 nM
  BRM IF Degradation Sinf (%): E (E indicates −30%-−70%)
BRG1
  DC50: < 10 nM
  Dmax: 0 to 30%

## Nc1nnc(-c2ccccc2O)cc1N1CC2CCC(C1)N2c1ccnc(C#CCN2CCC3(CCCC3)C2)c1 [Compound 127, 2-[6-amino-5-[8-[2-[3-(2-azaspiro[4.4]nonan-2-yl)prop-1-ynyl]-4-pyridyl]-3,8-diazabicyclo[3.2.1]octan-3-yl]pyridazin-3-yl]phenol]
BRM
  DC50: < 10 nM
  BRM IF Degradation Sinf (%): E (E indicates −30%-−70%)
BRG1
  DC50: < 10 nM
  Dmax: 30 to 70%

## CO[C@H]1CCN(CC#Cc2cc(N3C4CCC3CN(c3cc(-c5ccccc5O)nnc3N)C4)ccn2)C1 [Compound 128, 2-[6-amino-5-[8-[2-[3-[(3S)-3-methoxypyrrolidin-1-yl]prop-1-ynyl]-4-pyridyl]-3,8-diazabicyclo[3.2.1]octan-3-yl]pyridazin-3-yl]phenol]
BRM
  DC50: 10 to 100 nM
  BRM IF Degradation Sinf (%): F (F indicates −71%-−120%)
BRG1
  DC50: < 10 nM
  Dmax: 30 to 70%

## Nc1nnc(-c2ccccc2O)cc1N1CC2CCC(C1)N2c1ccnc(C#CCN2CCC3(CCC3)C2)c1 [Compound 129, 2-[6-amino-5-[8-[2-[3-(6-azaspiro[3.4]octan-6-yl)prop-1-ynyl]-4-pyridyl]-3,8-diazabicyclo[3.2.1]octan-3-yl]pyridazin-3-yl]phenol]
BRM
  DC50: < 10 nM
  BRM IF Degradation Sinf (%): E (E indicates −30%-−70%)
BRG1
  DC50: < 10 nM
  Dmax: 30 to 70%

## Nc1nnc(-c2ccccc2O)cc1N1CC2CCC(C1)N2c1ccnc(C#CCN2C[C@@H]3C[C@H]2C[C@H]3O)c1 [Compound 130, (1S,4S,5R)-2-[3-[4-[3-[3-amino-6-(2-hydroxyphenyl)pyridazin-4-yl]-3,8-diazabicyclo[3.2.1]octan-8-yl]-2-pyridyl]prop-2-ynyl]-2-azabicyclo[2.2.1]heptan-5-ol]
BRM
  DC50: < 10 nM
  BRM IF Degradation Sinf (%): E (E indicates −30%-−70%)
BRG1
  DC50: 10 to 100 nM
  Dmax: 30 to 70%

## Nc1nnc(-c2ccccc2O)cc1N1CC2CCC(C1)N2c1ccnc(C#CCN2CCC(F)CC2)c1 [Compound 131, 2-[6-amino-5-[8-[2-[3-(4-fluoro-1-piperidyl)prop-1-ynyl]-4-pyridyl]-3,8-diazabicyclo[3.2.1]octan-3-yl]pyridazin-3-yl]phenol]
BRM
  DC50: < 10 nM
  BRM IF Degradation Sinf (%): E (E indicates −30%-−70%)
BRG1
  DC50: < 10 nM
  Dmax: 0 to 30%

## Nc1nnc(-c2ccccc2O)cc1N1CC2CCC(C1)N2c1ccnc(C#CCN2CC3CC2CO3)c1 (stereo not drawn) [Compound 132, 2-[6-amino-5-[8-[2-[3-(2-oxa-5-azabicyclo[2.2.1]heptan-5-yl)prop-1-ynyl]-4-pyridyl]-3,8-diazabicyclo[3.2.1]octan-3-yl]pyridazin-3-yl]phenol]
BRM
  DC50: < 10 nM
  BRM IF Degradation Sinf (%): E (E indicates −30%-−70%)
BRG1
  DC50: < 10 nM
  Dmax: 30 to 70%

## Nc1nnc(-c2ccccc2O)cc1N1CC2CCC(C1)N2c1ccnc(C#CCN2CCC(F)C2)c1 (stereo not drawn) [Compound 133, 2-[6-amino-5-[8-[2-[3-(3-fluoropyrrolidin-1-yl)prop-1-ynyl]-4-pyridyl]-3,8-diazabicyclo[3.2.1]octan-3-yl]pyridazin-3-yl]phenol]
BRM
  DC50: < 10 nM
  BRM IF Degradation Sinf (%): E (E indicates −30%-−70%)
BRG1
  DC50: < 10 nM
  Dmax: 0 to 30%
